Marks after values point to notes of the source that are not given here.
Experiments:
[1] = test system: DLD-1 tumor; assay: Growth of tumors in nude mice, DLD-1 xenograft; type: in vivo; conditions: vincristine 1 mg/kg IP, days 1,5,9
Source text: (§1) 2.4. Growth of Tumors in Nude Mice.

[2] = test system: HCT-15 tumor; assay: Growth of tumors in nude mice, HCT-15 xenograft; type: in vivo; conditions: vincristine 1 mg/kg IP, days 1,5,9
Source text: as §1

[3] = test system: MX-1W tumor; assay: Growth of tumors in nude mice, MX-1W xenograft; type: in vivo; conditions: MX-1W; vincristine 1 mg/kg IP, days 1,5,9
Source text: as §1

[4] = test system: Human Epidermoid Carcinoma KB-3-1; assay: Growth of tumors in nude mice, KB-3-1 xenograft; type: in vivo; conditions: KB-3-1; vincristine 1 mg/kg IP, days 1,5,9
Method: as §1
In these experiments, xenografts are implanted subcutaneously into the flanks of nude mice. […] Relative tumor mass compared to controls are assessed during the 21-day post-staging period.
Groups of 5 female nu/nu mice are injected with 1.5×10^6 KB-3-1 (A) or Lox cells (B). […] Relative tumor growth is determined during the experiment and % T/C calculated. Statistical analyses are Student's t-test of treated time points vs. vehicle (*, P<0.05; **, P<0.01)

[5] = test system: human carcinoma xenografts; assay: Growth of tumors in nude mice, several xenograft models and tolerated dose; type: in vivo; conditions: DLD-1, MX-1W or HCT-15 tumors; at or near the MTD
Source text: as §1

[6] = test system: Human Melanoma Carcinoma Lox; conditions: Lox; vincristine 1 mg/kg IP, days 1,5,9
[7] = test system: KB-8.5 tumor; assay: Growth of tumors in nude mice, KB-8-5 xenograft; type: in vivo; conditions: vincristine 1 mg/kg IP, days 1,5,9
Source text: as §1

## CC[C@]1(O)C[C@H]2CN(CCc3c([nH]c4ccccc34)[C@@](C(=O)OC)(c3cc4c(cc3OC)N(C=O)[C@H]3[C@@](O)(C(=O)OC)[C@H](OC(C)=O)[C@]5(CC)C=CCN6CC[C@]43[C@@H]65)C2)C1 [vincristine]
[1]
  % T/C on day 7: 113%
  % T/C on day 14: 119%
  % T/C on day 21: 177%
[2]
  % T/C on day 9: 91%
  % T/C on day 13: 81%
  % T/C on day 17: 95%
  % T/C on day 21: 107%
[3]
  % T/C on day 7: 65%
  % T/C on day 14: 61%
[4]
  % T/C on day 7: 15** %
  % T/C on day 14: 12** %
  % T/C on day 21: 17** %
[5]
  response of tumors: no response
[6]
  % T/C on day 7: 13** %
  % T/C on day 12: 3** %
[7]
  % T/C on day 6: 71%
  % T/C on day 14: 85%
  % T/C on day 21: 81%

Source: patent US20040121965A1, “Method of treating resistant tumors” (Wyeth Holdings Corporation, priority 2002, published 2004)
